Laboratory results from US7169579B2, “Method of isolating Streptococcus sobrinus and selection medium” (Nihon University, priority 2001, dated 2007).
Values after ≈ are worked out from the molar mass of the structure shown. Where two headings read alike, the source gives them in different places. Blank lines part the entries; values can stand above or below the compound they belong to.

Columns and labels:
Type in all cases: cell-based
Streptococcus sobrinus [1] = assay: Recovery from no-growth wells on MS agar: bactericidal or bacteriostatic
Experimental: (§1) Aliquots of 10 μl of the broth in the well, which no bacterial growth was observed were inoculated onto Mitis Salivarius Agar (MS medium; manufactured by Difco) plates, respectively, and anaerobically incubated at a temperature of 37° C. for 48 hours. The recovery of the inoculated bacteria was calculated to estimate which the mechanism of growth inhibition was bactericidal or bacteriostatic.

Streptococcus mutans [2] = assay: as above
Experimental: as §1

Streptococcus sobrinus [3] = assay: Susceptibility test to antibiotics, microbroth dilution method (MIC)
Experimental: (§2) The susceptibility test was carried out in accordance with microbroth dilution method.
(§3) The above-described antibiotics were dissolved in an appropriate solution, respectively, and the respective antibiotic solutions were divided into serial two-fold dilutions in a 96-well microtiter plates containing BHI broth. The bacteria were precultured in BHI broth, respectively, and inoculated into the wells containing the antibiotic solution to make a final concentration of the bacteria to be 1×10^4 cells/well, respectively. The plates were anaerobically incubated at a temperature of 37° C. for 48 hours. After mixing the broth in each well by the use of a pipette, the absorbance at 550 nm in each well was measured with a microplate reader (manufactured by Corona Electric Co., Ibaraki, Japan), to determine bacterial growth. The antibiotic concentration at which no bacterial growth was observed was defined as the minimal inhibitory concentration (MIC).

Streptococcus mutans [4] = assay: as above; settings: for susceptibilities of Streptococcus mutans relative to those of Streptococcus sobrinus: from MICs of Table 2; for difference between Streptococcus mutans and Streptococcus sobrinus in their susceptibilities: in words, from MICs of Tables 2 and 3
Experimental: as §2, §3

[5] = Streptococcus sobrinus strains of Table 3
[6] = Streptococcus sobrinus, strains of Table 2
[7] = Streptococcus mutans strains of Table 3
[8] = Streptococcus mutans, strains of Table 2
[9] = Streptococcus sobrinus, Streptococcus sobrinus 0MZ176 (serotype d), read-out: MIC
[10] = Streptococcus sobrinus, Streptococcus sobrinus B-13 (serotype d), read-out: MIC
[11] = Streptococcus sobrinus, Streptococcus sobrinus NIDR6715, serotype g, read-out: MIC
[12] = Streptococcus sobrinus, Streptococcus sobrinus NUM-Ssd1, serotype d, read-out: MIC
[13] = Streptococcus sobrinus, Streptococcus sobrinus NUM-Ssd2, serotype d, read-out: MIC
[14] = Streptococcus sobrinus, Streptococcus sobrinus OMZ65, serotype g, read-out: MIC
[15] = Streptococcus sobrinus, strains of Table 2, read-out: MIC to Streptococcus sobrinus
[16] = Streptococcus mutans, Streptococcus mutans 10449 (serotype c), read-out: MIC
[17] = Streptococcus mutans, Streptococcus mutans Ingbritt, serotype c, read-out: MIC
[18] = Streptococcus mutans, Streptococcus mutans JC2 (serotype c), read-out: MIC
[19] = Streptococcus mutans, Streptococcus mutans LM7, serotype e, read-out: MIC
[20] = Streptococcus mutans, Streptococcus mutans NUM-Sme1, serotype e, read-out: MIC
[21] = Streptococcus mutans, Streptococcus mutans NUM-Smf1, serotype f, read-out: MIC
[22] = Streptococcus mutans, Streptococcus mutans OMZ175, serotype f, read-out: MIC
[23] = Streptococcus mutans, Streptococcus mutans PS14, serotype c, read-out: MIC
[24] = Streptococcus mutans, strains of Table 2, read-out: MIC to Streptococcus mutans
[25] = Streptococcus mutans, strains of serotype f of Streptococcus mutans, summary of Table 3, read-out: MIC
[26] = Streptococcus mutans, strains of serotypes c and e of Streptococcus mutans, summary of Table 3, read-out: MIC
[27] = Streptococcus mutans 10449 (serotype c)

Compound: C[C@H]1[C@H](NC(=O)/C(=N\OC(C)(C)C(=O)O)c2csc(N)n2)C(=O)N1S(=O)(=O)O [Aztreonam]
- mode of action (bactericidal or bacteriostatic) (Streptococcus sobrinus [1]; [5]): bactericidal
- mode of action (bactericidal or bacteriostatic) (Streptococcus sobrinus [1]; [6]): bactericidal
- mode of action (bactericidal or bacteriostatic) (Streptococcus mutans [2]; [7]): bactericidal
- mode of action (bactericidal or bacteriostatic) (Streptococcus mutans [2]; [8]): bactericidal
- MIC (Streptococcus sobrinus [3]; [9]): 2000 µg/mL (≈ 4590 µM)
- MIC (Streptococcus sobrinus [3]; [10]): 2000 µg/mL (≈ 4590 µM)
- MIC (Streptococcus sobrinus [3]; [11]): 2000 µg/mL (≈ 4590 µM)
- MIC (Streptococcus sobrinus [3]; [12]): 2000 µg/mL (≈ 4590 µM)
- MIC (Streptococcus sobrinus [3]; [13]): 2000 µg/mL (≈ 4590 µM)
- MIC (Streptococcus sobrinus [3]; [14]): 2000 µg/mL (≈ 4590 µM)
- MIC (Streptococcus sobrinus [3]; [15]): 2000 µg/mL (≈ 4590 µM)
- MIC (Streptococcus mutans [4]; [16]): 125 µg/mL (≈ 287 µM)
- MIC (Streptococcus mutans [4]; [17]): 125 µg/mL (≈ 287 µM)
- MIC (Streptococcus mutans [4]; [18]): 125 µg/mL (≈ 287 µM)
- MIC (Streptococcus mutans [4]; [19]): 125 µg/mL (≈ 287 µM)
- MIC (Streptococcus mutans [4]; [20]): 125 µg/mL (≈ 287 µM)
- MIC (Streptococcus mutans [4]; [21]): 250 µg/mL (≈ 574 µM)
- MIC (Streptococcus mutans [4]; [22]): 250 µg/mL (≈ 574 µM)
- MIC (Streptococcus mutans [4]; [23]): 125 µg/mL (≈ 287 µM)
- MIC (Streptococcus mutans [4]; [24]): 125 µg/mL (≈ 287 µM)
- MIC (Streptococcus mutans [4]; [25]): 250 µg/mL (≈ 574 µM)
- MIC (Streptococcus mutans [4]; [26]): 125 µg/mL (≈ 287 µM)
- susceptibilities of Streptococcus mutans relative to those of Streptococcus sobrinus (Streptococcus mutans [4]): 16 fold

Compound: NC(=O)OC[C@@H]1[C@H](NC(=O)/C(=N\OCC(=O)O)c2csc(N)n2)C(=O)N1S(=O)(=O)O [Carumonam]
- mode of action (bactericidal or bacteriostatic) (Streptococcus sobrinus [1]; [5]): bactericidal
- mode of action (bactericidal or bacteriostatic) (Streptococcus sobrinus [1]; [6]): bactericidal
- mode of action (bactericidal or bacteriostatic) (Streptococcus mutans [2]; [7]): bactericidal
- mode of action (bactericidal or bacteriostatic) (Streptococcus mutans [2]; [8]): bactericidal
- MIC (Streptococcus sobrinus [3]; [9]): 2000 µg/mL (≈ 4290 µM)
- MIC (Streptococcus sobrinus [3]; [10]): 2000 µg/mL (≈ 4290 µM)
- MIC (Streptococcus sobrinus [3]; [11]): 2000 µg/mL (≈ 4290 µM)
- MIC (Streptococcus sobrinus [3]; [12]): 2000 µg/mL (≈ 4290 µM)
- MIC (Streptococcus sobrinus [3]; [13]): 2000 µg/mL (≈ 4290 µM)
- MIC (Streptococcus sobrinus [3]; [14]): 1000 µg/mL (≈ 2140 µM)
- MIC (Streptococcus sobrinus [3]; [15]): 2000 µg/mL (≈ 4290 µM)
- MIC (Streptococcus mutans [4]; [16]): 125 µg/mL (≈ 268 µM)
- MIC (Streptococcus mutans [4]; [17]): 125 µg/mL (≈ 268 µM)
- MIC (Streptococcus mutans [4]; [18]): 125 µg/mL (≈ 268 µM)
- MIC (Streptococcus mutans [4]; [19]): 125 µg/mL (≈ 268 µM)
- MIC (Streptococcus mutans [4]; [20]): 125 µg/mL (≈ 268 µM)
- MIC (Streptococcus mutans [4]; [21]): 250 µg/mL (≈ 536 µM)
- MIC (Streptococcus mutans [4]; [22]): 250 µg/mL (≈ 536 µM)
- MIC (Streptococcus mutans [4]; [23]): 125 µg/mL (≈ 268 µM)
- MIC (Streptococcus mutans [4]; [24]): 125 µg/mL (≈ 268 µM)
- MIC (Streptococcus mutans [4]; [25]): 250 µg/mL (≈ 536 µM)
- MIC (Streptococcus mutans [4]; [26]): 125 µg/mL (≈ 268 µM)
- susceptibilities of Streptococcus mutans relative to those of Streptococcus sobrinus (Streptococcus mutans [4]): 16 fold

Compound: Cc1nnc(SCC2=C(C(=O)O)N3C(=O)[C@@H](NC(=O)Cn4cnnn4)[C@H]3SC2)s1 [Cefazoline]
- MIC (Streptococcus sobrinus [3]; [9]): 0.25 µg/mL (≈ 0.55 µM)
- MIC (Streptococcus sobrinus [3]; [10]): 0.5 µg/mL (≈ 1.1 µM)
- MIC (Streptococcus mutans [4]; [16]): 0.25 µg/mL (≈ 0.55 µM)
- MIC (Streptococcus mutans [4]; [18]): 0.25 µg/mL (≈ 0.55 µM)
- difference between Streptococcus mutans and Streptococcus sobrinus in their susceptibilities (Streptococcus mutans [4]): no significant difference

Compound: CO[C@@]1(NC(=O)Cc2cccs2)C(=O)N2C(C(=O)O)=C(COC(N)=O)CS[C@@H]21 [Cefoxitin]
- susceptibility of OMZ176 strain relative to the other bacterial strains (Streptococcus sobrinus [3]; Streptococcus sobrinus OMZ176 vs other strains of Table 2): approximately 4 times
- MIC (Streptococcus sobrinus [3]; [9]): 12.5 µg/mL (≈ 29.2 µM)
- MIC (Streptococcus sobrinus [3]; [10]): 3.13 µg/mL (≈ 7.32 µM)
- MIC (Streptococcus mutans [4]; [16]): 3.13 µg/mL (≈ 7.32 µM)
- MIC (Streptococcus mutans [4]; [18]): 3.13 µg/mL (≈ 7.32 µM)
- difference between Streptococcus mutans and Streptococcus sobrinus in their susceptibilities (Streptococcus mutans [4]): no significant difference

Compound: O=C(Cc1cccs1)N[C@@H]1C(=O)N2C(C(=O)[O-])=C(C[n+]3ccccc3)CS[C@H]12 [Cephaloridine]
- MIC (Streptococcus sobrinus [3]; Streptococcus sobrinus): 0.025 µg/mL (≈ 0.0602 µM)
- MIC (Streptococcus sobrinus [3]; Streptococcus sobrinus B-13 (serotype d)): 0.025 µg/mL (≈ 0.0602 µM)
- MIC (Streptococcus mutans [4]; Streptococcus mutans): 0.025 µg/mL (≈ 0.0602 µM)
- MIC (Streptococcus mutans [4]; [27]): 0.025 µg/mL (≈ 0.0602 µM)
- difference between Streptococcus mutans and Streptococcus sobrinus in their susceptibilities (Streptococcus mutans [4]): no significant difference

Compound: C[C@@H](O)[C@H]1C(=O)N2C(C(=O)O)=C(SCCN=CN)C[C@H]12 [Imipenem]
- MIC (Streptococcus sobrinus [3]; [9]): 0.031 µg/mL (≈ 0.104 µM)
- MIC (Streptococcus sobrinus [3]; [10]): 0.016 µg/mL (≈ 0.0534 µM)
- MIC (Streptococcus mutans [4]; Streptococcus mutans): 0.125 µg/mL (≈ 0.418 µM)
- MIC (Streptococcus mutans [4]; [27]): 0.125 µg/mL (≈ 0.418 µM)

Further lines, with some results ahead:

- MIC (Streptococcus sobrinus [3]; [9]): 0.05 µg/mL (≈ 0.15 µM)
- MIC (Streptococcus sobrinus [3]; [10]): 0.05 µg/mL (≈ 0.15 µM)
- MIC (Streptococcus mutans [4]; [16]): 0.1 µg/mL (≈ 0.299 µM)
- MIC (Streptococcus mutans [4]; [18]): 0.1 µg/mL (≈ 0.299 µM)
Compound: CC1(C)S[C@@H]2[C@H](NC(=O)Cc3ccccc3)C(=O)N2[C@H]1C(=O)O [Benzylpenicillin]
- susceptibilities of Streptococcus sobrinus relative to those of Streptococcus mutans (Streptococcus sobrinus [3]; from MICs of Table 2): twice as high

- MIC (Streptococcus sobrinus [3]; [9]): 1.25 µg/mL (≈ 3.6 µM)
- MIC (Streptococcus sobrinus [3]; [10]): 1.25 µg/mL (≈ 3.6 µM)
- MIC (Streptococcus mutans [4]; [16]): 1.25 µg/mL (≈ 3.6 µM)
- MIC (Streptococcus mutans [4]; [18]): 1.25 µg/mL (≈ 3.6 µM)
Compound: CC1=C(C(=O)O)N2C(=O)[C@@H](NC(=O)[C@H](N)c3ccccc3)[C@H]2SC1 [Cephalexin]
- difference between Streptococcus mutans and Streptococcus sobrinus in their susceptibilities (Streptococcus mutans [4]): no significant difference

- MIC (Streptococcus sobrinus [3]; [9]): 1.25 µg/mL (≈ 2.87 µM)
- MIC (Streptococcus sobrinus [3]; [10]): 1.25 µg/mL (≈ 2.87 µM)
- MIC (Streptococcus mutans [4]; [16]): 0.63 µg/mL (≈ 1.45 µM)
- MIC (Streptococcus mutans [4]; [18]): 0.63 µg/mL (≈ 1.45 µM)
Compound: Cc1onc(-c2ccccc2Cl)c1C(=O)N[C@@H]1C(=O)N2[C@@H]1SC(C)(C)[C@@H]2C(=O)O [Cloxacillin]
- susceptibilities of Streptococcus mutans relative to those of Streptococcus sobrinus (Streptococcus mutans [4]): twice as high
